Results reported in ChEMBL document CHEMBL4834480, “Discovery of 3,5-Dimethyl-4-Sulfonyl-1H-Pyrrole-Based Myeloid Cell Leukemia 1 Inhibitors with High Affinity, Selectivity, and Oral Bioavailability” (J Med Chem, 2021).
Values after ≈ are worked out from the molar mass of the structure shown. Active and inactive are the calls of the source. The rule behind the calls is not given here.

Columns and labels:
[1] = Toxicity in BALB/c nude mouse xenografted with human MV4-11 cells assessed as effect on kidney at 60 mg/kg, po administered every two days for 14 days by hematoxyin-eosin staining based analysis; type: organism-based; conditions: in vivo, 336 h, time 14 day
NCI-H929 [2] = assay: Induction of apoptosis in human NCI-H929 cells assessed as upregulation of cleaved PARP measured after 48 hrs by Western blot analysis; type: functional, cell-based; conditions: dose microM <=5, time 48.0 hrs
NCI-H929 [3] = assay: Antiproliferative activity against human NCI-H929 cells assessed as decrease in cell viability measured after 72 hrs by MTT assay; type: functional, cell-based; conditions: NCI-H929, 72 h
[4] = Toxicity in BALB/c nude mouse xenografted with human MV4-11 cells assessed as effect on heart weight at 60 mg/kg, po administered every two days for 14 days; type: organism-based; conditions: in vivo, 336 h, time 14 day
P-gp = P-gp (Homo sapiens, UniProt P08183); assay: Substrate activity at P-gp in human Caco-2 cells assessed as permeability across apical to basolateral membrane by LC-MS/MS analysis; type: ADME, cell-based; conditions: read-out: permeability
P-gp, sequence (P08183 whole entry): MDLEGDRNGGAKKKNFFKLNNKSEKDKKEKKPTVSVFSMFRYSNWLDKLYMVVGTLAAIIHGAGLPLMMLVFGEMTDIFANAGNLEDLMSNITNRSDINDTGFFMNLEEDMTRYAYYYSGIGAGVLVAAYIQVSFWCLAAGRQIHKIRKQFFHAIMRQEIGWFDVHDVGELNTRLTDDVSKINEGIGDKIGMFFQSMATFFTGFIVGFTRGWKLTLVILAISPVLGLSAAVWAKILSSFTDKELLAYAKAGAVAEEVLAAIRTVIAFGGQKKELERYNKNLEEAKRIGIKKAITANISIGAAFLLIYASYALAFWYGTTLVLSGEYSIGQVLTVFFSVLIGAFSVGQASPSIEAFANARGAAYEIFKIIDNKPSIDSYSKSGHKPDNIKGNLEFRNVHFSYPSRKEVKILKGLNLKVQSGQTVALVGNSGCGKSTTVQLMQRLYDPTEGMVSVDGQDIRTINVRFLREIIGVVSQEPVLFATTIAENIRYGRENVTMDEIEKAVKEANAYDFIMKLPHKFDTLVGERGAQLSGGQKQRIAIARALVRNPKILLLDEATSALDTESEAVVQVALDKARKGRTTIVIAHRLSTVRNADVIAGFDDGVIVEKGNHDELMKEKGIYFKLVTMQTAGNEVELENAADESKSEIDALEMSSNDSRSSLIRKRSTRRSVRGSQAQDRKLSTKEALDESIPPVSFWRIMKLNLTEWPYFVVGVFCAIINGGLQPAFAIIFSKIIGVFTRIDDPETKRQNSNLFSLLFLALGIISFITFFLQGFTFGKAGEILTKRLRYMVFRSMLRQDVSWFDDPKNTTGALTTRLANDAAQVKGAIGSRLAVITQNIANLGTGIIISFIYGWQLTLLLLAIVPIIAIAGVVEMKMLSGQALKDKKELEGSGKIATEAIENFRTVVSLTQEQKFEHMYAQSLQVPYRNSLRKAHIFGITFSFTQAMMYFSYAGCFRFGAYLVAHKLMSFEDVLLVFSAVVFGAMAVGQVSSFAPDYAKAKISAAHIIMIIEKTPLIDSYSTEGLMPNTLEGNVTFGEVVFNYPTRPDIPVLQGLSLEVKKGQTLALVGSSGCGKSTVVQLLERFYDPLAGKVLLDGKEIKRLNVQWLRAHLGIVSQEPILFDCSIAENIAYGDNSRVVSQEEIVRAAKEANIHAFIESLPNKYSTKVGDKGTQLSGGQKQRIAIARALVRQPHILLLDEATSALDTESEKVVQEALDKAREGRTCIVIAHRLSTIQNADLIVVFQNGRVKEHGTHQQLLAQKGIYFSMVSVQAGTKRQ

NCI-H929 [5] = assay: Induction of apoptosis in human NCI-H929 cells assessed as activation of caspase 3 after 4 hrs by luminescence based microplate reader assay; type: functional, cell-based; conditions: dose microM <=5, time 4.0 hrs
Homo sapiens = species: Homo sapiens; assay: Selectivity ratio of Kd for human partial length BCL2 (M1 to D211 residues) expressed in bacterial expression system to Kd for human partial length MCL1 ([…] to R329 residues) expressed in bacterial expression system
[6] = Toxicity in BALB/c nude mouse xenografted with human MV4-11 cells assessed as effect on heart at 20 mg/kg, ip administered every two days for 14 days by hematoxyin-eosin staining based analysis; type: organism-based; conditions: in vivo, 336 h, time 14 day
CYP2D6 = CYP2D6 (Homo sapiens, UniProt P10635); assay: Inhibition of CYP2D6 (unknown origin) at 10 uM preincubated for 5 min followed by NADPH addition and measured after 20 mins by LC-MS/MS analysis relative to control; type: ADME; conditions: time 25 min
CYP2D6, sequence (P10635 whole entry, the tested form may be a part): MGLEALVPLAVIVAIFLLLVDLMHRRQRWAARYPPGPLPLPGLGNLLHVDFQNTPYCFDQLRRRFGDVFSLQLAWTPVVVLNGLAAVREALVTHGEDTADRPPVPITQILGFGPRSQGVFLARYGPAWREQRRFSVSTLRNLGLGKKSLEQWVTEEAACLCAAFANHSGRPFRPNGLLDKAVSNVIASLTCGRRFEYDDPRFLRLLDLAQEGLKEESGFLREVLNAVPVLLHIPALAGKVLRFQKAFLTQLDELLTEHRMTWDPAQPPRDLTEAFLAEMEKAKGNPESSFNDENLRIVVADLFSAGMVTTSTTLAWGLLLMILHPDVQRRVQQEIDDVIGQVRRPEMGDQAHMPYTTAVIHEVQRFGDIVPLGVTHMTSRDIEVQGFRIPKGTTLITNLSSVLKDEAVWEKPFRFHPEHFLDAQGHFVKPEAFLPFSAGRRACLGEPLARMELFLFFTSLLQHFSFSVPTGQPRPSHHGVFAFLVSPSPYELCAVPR

Bcl-2-related protein A1 = target: T1, Bcl-2-related protein A1 (Homo sapiens, UniProt Q16548); assay: Binding affinity to human partial length BCL2A1 (M1 to G153 residues) expressed in bacterial expression system by BCL2SCAN assay
T1 sequence (Q16548 whole entry): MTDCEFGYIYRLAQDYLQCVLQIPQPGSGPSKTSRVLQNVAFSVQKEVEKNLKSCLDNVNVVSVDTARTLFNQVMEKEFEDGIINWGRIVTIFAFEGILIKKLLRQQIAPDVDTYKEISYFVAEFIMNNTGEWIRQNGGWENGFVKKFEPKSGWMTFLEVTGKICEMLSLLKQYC

K562 = assay: Induction of apoptosis in human K562 cells assessed as upregulation of cleaved PARP up to 5 uM measured after 48 hrs by Western blot analysis; type: functional, cell-based; conditions: dose microM <=5, time 48.0 hrs
[7] = Toxicity in BALB/c nude mouse xenografted with human MV4-11 cells assessed as effect on kidney weight at 60 mg/kg, po administered every two days for 14 days; type: organism-based; conditions: in vivo, 336 h, time 14 day
NCI-H23 = assay: Antiproliferative activity against human NCI-H23 cells assessed as decrease in cell viability measured after 72 hrs by MTT assay; type: functional, cell-based; conditions: NCI-H23, 72 h
[8] = Toxicity in BALB/c nude mouse xenografted with human MV4-11 cells assessed as effect on heart weight at 20 mg/kg, ip administered every two days for 14 days; type: organism-based; conditions: in vivo, 336 h, time 14 day
[9] = Toxicity in BALB/c nude mouse xenografted with human MV4-11 cells assessed as effect on liver at 20 mg/kg, ip administered every two days for 14 days by hematoxyin-eosin staining based analysis; type: organism-based; conditions: in vivo, 336 h, time 14 day
[10] = Permeability of the compound at pH 7.4 measured after 4 hrs by PAMPA assay; type: ADME; conditions: read-out: permeability
[11] = Stability of the compound in human plasma assessed as parent compound remaining measured after 2 hrs by LC-MS/MS analysis; type: ADME, cell-free; conditions: read-out: Stabilty
MV4-11 [12] = assay: Induction of apoptosis in human MV4-11 cells xenografted in BALB/c nude mouse assessed as induction of PARP cleavage at 20 mg/kg, ip administered every two days for 14 days by Western blot analysis; type: functional, organism-based; conditions: time 14.0 day
Bcl-2-like protein 2 = target: T2, Bcl-2-like protein 2 (Homo sapiens, UniProt Q92843); assay: Binding affinity to human partial length BCLW (M1 to R171 residues) expressed in bacterial expression system by BCL2SCAN assay
T2 sequence (Q92843 whole entry): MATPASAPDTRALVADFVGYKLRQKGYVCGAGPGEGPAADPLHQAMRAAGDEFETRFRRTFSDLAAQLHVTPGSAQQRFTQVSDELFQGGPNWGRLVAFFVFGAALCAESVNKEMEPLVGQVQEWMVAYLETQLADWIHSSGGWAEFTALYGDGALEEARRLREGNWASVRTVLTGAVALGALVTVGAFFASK

[13] = target: Voltage-gated inwardly rectifying potassium channel KCNH2 (Homo sapiens, UniProt Q12809); assay: Inhibition of human ERG
Voltage-gated inwardly rectifying potassium channel KCNH2, sequence (Q12809 whole entry): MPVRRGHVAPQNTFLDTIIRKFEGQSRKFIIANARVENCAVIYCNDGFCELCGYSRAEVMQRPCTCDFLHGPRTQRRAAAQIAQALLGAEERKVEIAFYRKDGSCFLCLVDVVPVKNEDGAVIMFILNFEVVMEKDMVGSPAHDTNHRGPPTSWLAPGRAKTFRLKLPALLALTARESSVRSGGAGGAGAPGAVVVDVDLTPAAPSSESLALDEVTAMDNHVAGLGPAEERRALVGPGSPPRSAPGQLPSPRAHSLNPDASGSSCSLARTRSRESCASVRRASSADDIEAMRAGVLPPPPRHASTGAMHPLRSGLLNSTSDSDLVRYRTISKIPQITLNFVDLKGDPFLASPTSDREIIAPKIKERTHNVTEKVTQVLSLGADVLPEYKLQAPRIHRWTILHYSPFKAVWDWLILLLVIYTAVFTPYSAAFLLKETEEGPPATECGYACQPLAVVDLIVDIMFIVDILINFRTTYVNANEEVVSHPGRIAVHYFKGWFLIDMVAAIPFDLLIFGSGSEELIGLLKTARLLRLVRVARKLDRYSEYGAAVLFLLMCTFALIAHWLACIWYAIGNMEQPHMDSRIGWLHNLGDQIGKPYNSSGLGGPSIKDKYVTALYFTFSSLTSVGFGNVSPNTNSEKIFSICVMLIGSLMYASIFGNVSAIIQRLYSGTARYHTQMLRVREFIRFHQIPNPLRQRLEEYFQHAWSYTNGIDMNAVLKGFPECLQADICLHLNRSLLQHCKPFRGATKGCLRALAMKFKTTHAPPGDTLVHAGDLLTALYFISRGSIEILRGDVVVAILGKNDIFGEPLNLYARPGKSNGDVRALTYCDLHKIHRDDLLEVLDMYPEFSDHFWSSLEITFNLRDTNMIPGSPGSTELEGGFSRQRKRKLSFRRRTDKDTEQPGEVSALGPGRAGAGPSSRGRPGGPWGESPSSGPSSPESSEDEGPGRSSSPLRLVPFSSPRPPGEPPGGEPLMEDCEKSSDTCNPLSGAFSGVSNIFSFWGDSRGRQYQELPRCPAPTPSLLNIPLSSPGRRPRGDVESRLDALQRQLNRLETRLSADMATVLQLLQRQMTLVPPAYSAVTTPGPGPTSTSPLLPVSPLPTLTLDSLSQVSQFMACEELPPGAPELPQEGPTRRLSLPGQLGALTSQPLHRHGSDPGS

NCI-H929 [14] = assay: Induction of apoptosis in human NCI-H929 cells assessed as activation of caspase 7 after 4 hrs by luminescence based microplate reader assay; type: functional, cell-based; conditions: dose microM <=5, time 4.0 hrs
NCI-H929 [15] = assay: Induction of apoptosis in human NCI-H929 cells measured after 48 hrs by annexinV-FITC/propidium iodide staining based flow cytometry analysis; type: functional, cell-based; conditions: dose 1-5 µM
[16] = AUCt in Sprague-Dawley rat at 3 mg/kg, iv measured up to 24 hrs by LC-MS/MS analysis; type: ADME, organism-based; set-up: route intravenous, dose 3 mg/kg, time <=24; conditions: in vivo
[17] = Toxicity in BALB/c nude mouse xenografted with human MV4-11 cells assessed as effect on liver weight at 60 mg/kg, po administered every two days for 14 days; type: organism-based; conditions: in vivo, 336 h, time 14 day
MV4-11 [18] = assay: Induction of apoptosis in human MV4-11 cells xenografted in BALB/c nude mouse assessed as induction of PARP cleavage at 60 mg/kg, po administered every two days for 14 days by Western blot analysis; type: functional, organism-based; conditions: time 14.0 day
SK-BR-3 = assay: Antiproliferative activity against human SK-BR-3 cells assessed as decrease in cell viability measured after 72 hrs by MTT assay; type: functional, cell-based; conditions: SK-BR-3, 72 h
[19] = AUCt in Sprague-Dawley rat at 10 mg/kg, po measured up to 24 hrs by LC-MS/MS analysis; type: ADME, organism-based; set-up: route oral, dose 10 mg/kg, time <=24; conditions: in vivo
CYP2C19 = CYP2C19 (Homo sapiens, UniProt P33261); assay: Inhibition of CYP2C19 (unknown origin) at 10 uM preincubated for 5 min followed by NADPH addition and measured after 20 mins by LC-MS/MS analysis relative to control; type: ADME; conditions: time 25 min
CYP2C19, sequence (P33261 whole entry): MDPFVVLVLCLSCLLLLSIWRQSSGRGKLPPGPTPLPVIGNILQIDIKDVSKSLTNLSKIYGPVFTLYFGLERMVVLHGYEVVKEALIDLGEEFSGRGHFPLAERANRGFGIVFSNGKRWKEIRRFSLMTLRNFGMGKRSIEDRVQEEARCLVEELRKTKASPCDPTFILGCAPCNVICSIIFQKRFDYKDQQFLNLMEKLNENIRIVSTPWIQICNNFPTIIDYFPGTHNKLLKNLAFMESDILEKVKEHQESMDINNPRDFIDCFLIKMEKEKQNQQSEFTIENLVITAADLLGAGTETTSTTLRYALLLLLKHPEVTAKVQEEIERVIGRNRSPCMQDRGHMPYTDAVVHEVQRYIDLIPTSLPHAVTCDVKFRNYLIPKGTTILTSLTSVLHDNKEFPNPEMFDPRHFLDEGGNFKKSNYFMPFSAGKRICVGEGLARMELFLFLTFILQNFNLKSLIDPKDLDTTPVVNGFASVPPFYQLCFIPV

[20] = Water solubility of the compound; type: physicochemical
Bcl-2-like protein 1 = Bcl-2-like protein 1 (Homo sapiens, UniProt Q07817); assay: Binding affinity to human partial length BCL-XL (M1 to R209 residues) expressed in bacterial expression system by BCL2SCAN assay
Bcl-2-like protein 1, sequence (Q07817 whole entry, the tested form may be a part): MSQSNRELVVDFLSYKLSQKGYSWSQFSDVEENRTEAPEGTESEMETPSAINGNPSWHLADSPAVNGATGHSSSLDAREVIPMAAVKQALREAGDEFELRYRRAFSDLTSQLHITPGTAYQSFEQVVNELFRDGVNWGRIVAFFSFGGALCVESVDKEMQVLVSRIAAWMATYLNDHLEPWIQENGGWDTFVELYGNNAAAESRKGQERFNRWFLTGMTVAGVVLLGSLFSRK

[21] = Cmax in Sprague-Dawley rat at 10 mg/kg, po measured up to 24 hrs by LC-MS/MS analysis; type: ADME, organism-based; set-up: route oral, dose 10 mg/kg, time <=24; conditions: in vivo
[22] = Tmax in Sprague-Dawley rat at 10 mg/kg, po measured up to 24 hrs by LC-MS/MS analysis; type: ADME, organism-based; conditions: in vivo
[23] = Clearance in Sprague-Dawley rat at 3 mg/kg, iv measured up to 24 hrs by LC-MS/MS analysis; type: ADME, organism-based; conditions: in vivo

CC(=O)c1ccc(S(=O)(=O)c2c(C)c(C(=O)O)n(CCCOc3cc(C)c(Cl)c(C)c3)c2C)cc1
Activity [1]: Non-Toxic
Activity (NCI-H929 [2]): Dose-Dependent Effect
IC50 (NCI-H929 [3]): 0.36 µM
Activity [4]: Non-Toxic
Papp A→B (P-gp): 3.62 ×10⁻⁶ cm/s
Activity (NCI-H929 [5]): Dose-Dependent Effect
Selectivity ratio (Homo sapiens): > 40000
Activity [6]: Non-Toxic
inhibition at 20 min, 10 µM (CYP2D6): 9.13%
Kd (Bcl-2-related protein A1): > 10 µM
Activity (K562): inactive
Activity [7]: Non-Toxic
IC50 (NCI-H23): 3.02 µM
Activity [8]: Non-Toxic
Activity [9]: Non-Toxic
Papp at 4 h [10]: 52.6 ×10⁻⁶ cm/s
remaining at 2 h [11]: 96.5%
Activity (MV4-11 [12]): Active
Kd (Bcl-2-like protein 2): > 10 µM
IC50 [13]: > 30 µM
Activity (NCI-H929 [14]): Dose-Dependent Effect
Activity (NCI-H929 [15]): Dose-Dependent Effect
AUC(0-t) at 24 h [16]: 3290 ng·h/mL
Activity [17]: Non-Toxic
Activity (MV4-11 [18]): Active
IC50 (SK-BR-3): 2.84 µM
AUC(0-t) at 24 h [19]: 4530 ng·h/mL
inhibition at 20 min, 10 µM (CYP2C19): 2.85%
solubility [20]: 32.3 µg/mL (≈ 62.4 µM)
Kd (Bcl-2-like protein 1): > 10 µM
Cmax [21]: 2010 ng/mL
Tmax [22]: 30 min
clearance [23]: 15.2 mL/min/kg
